# Laboratory results reported in patent US11034666B2, “Anti-inflammatory and antitumor 2-oxothiazoles and 2-oxothiophenes compounds” (Avexxin AS, priority 2013, dated 2021).
# pIC50: −log10 of the molar value. Where two headings read alike, the source gives them in different places.
# Columns and labels:
# human GVIA iPLA2 = target: T1, human GVIA iPLA2 (Homo sapiens, UniProt O60733); assay: In vitro mixed micelle assay, GVIA iPLA2; type: biochemical; conditions: for inhibition at 0.091 mole fraction: mixed micelles, 0.091 mole fraction of inhibitor, Table 6, read-out: GVIA iPLA2 % Inhib
# T1 sequence (O60733 1-806): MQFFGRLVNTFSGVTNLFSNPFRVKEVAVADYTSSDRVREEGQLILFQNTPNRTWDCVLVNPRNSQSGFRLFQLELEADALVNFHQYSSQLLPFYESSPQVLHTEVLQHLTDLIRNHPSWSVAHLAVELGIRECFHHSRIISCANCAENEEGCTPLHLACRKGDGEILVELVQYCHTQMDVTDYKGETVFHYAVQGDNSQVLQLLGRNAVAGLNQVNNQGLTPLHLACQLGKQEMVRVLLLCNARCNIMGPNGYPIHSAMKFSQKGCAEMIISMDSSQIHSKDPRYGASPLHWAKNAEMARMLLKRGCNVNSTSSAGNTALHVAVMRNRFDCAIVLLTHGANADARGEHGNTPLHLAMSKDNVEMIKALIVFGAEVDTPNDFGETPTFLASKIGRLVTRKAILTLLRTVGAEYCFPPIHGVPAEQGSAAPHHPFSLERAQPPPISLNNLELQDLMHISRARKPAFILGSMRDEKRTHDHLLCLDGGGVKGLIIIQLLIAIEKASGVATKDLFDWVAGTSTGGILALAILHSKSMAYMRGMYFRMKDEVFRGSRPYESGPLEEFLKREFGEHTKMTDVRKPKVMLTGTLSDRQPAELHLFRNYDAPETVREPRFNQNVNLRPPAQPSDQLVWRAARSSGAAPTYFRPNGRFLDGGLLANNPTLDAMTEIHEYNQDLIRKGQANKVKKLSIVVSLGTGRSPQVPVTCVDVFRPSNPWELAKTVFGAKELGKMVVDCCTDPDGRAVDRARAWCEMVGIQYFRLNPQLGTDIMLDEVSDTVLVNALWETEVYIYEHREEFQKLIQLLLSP
# Experimental: (§1) At first, the percent of inhibition for each PLA2 enzyme at 0.091 mole fraction of each inhibitor was determined. […] The XI(50) is the mole fraction of the inhibitor in the total substrate interface required to inhibit the enzyme activity by 50%. […] (ii) GVI iPLA2 substrate mixed-micelles were composed of 400 μM Triton X-100, 98.3 μM PAPC, and 1.7 μM ^14C-labeled PAPC in buffer containing 100 mM HEPES, pH 7.5, 2 mM ATP, and 4 mM DTT; (iii) GV sPLA2 substrate mixed-micelles were composed of 400 μM Triton X-100, 98.3 μM PAPC, and 1.7 μM ^14C-labeled PAPC in buffer containing 50 mMTris, pH 8.0, and 5 mM […] CaCl2.
# human GV sPLA2 = target: T2, human GV sPLA2 (Homo sapiens, UniProt P39877); assay: In vitro mixed micelle assay, GV sPLA2; type: biochemical; conditions: for inhibition at 0.091 mole fraction: mixed micelles, 0.091 mole fraction of inhibitor, Table 6, read-out: GV sPLA2 % Inhib
# T2 sequence (P39877 21-138): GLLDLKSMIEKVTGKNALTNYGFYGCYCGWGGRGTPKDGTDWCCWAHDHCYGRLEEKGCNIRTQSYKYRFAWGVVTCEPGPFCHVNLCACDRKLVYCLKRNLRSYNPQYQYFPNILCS
# Experimental: as §1
# [1] = system: AA release in SW982 cells; assay: Ex vivo cellular arachidonic acid (AA) release assay, IL-1β stimulated; type: cell-based, human; conditions: for pIC50 / inhibition: Homo sapiens; for inhibition: % inhibition at 10 pM oxothiazole (so in the source), read-out: AA release % Inhib
# Experimental: (§2) The effect of the oxothiazoles synthesized on the release of AA and OA in synoviocytes was evaluated as previously described.^54 The percent inhibition of AA and OA was determined at a 10 μM inhibitor concentration, while for the determination of the IC50 value the inhibitors were tested in a 0-20 μM range after IL-1β stimulation for 4 h.
# (§3) The human synovial sarcoma cell line SW982 was from ATCC (UK) and was used as a model system to monitor AA/OA release and activation of GIVA cPLA2. SW982 cells were passaged bi-weekly by routine trypsin detachment and kept in a sub-confluent state. The cells were maintained in Dulbecco's Modified Eagle Medium (DMEM) supplemented with 10% FBS, 0.1 mg/mL gentamicin and 0.3 mg/mL L-glutamine at 37° C. with 10% CO2. For AA release, 5*10^5 cells were seeded pr well in a 48-well per plate format. Experiments were performed at 3 days post-confluency following overnight serum deprivation in serum-free DMEM to ensure differentiation and synchronization of the cells.
# (§4) AA and OA release was analyzed as previously described.^54 At 2 days post-confluency, SW982 cells were serum-starved and labelled overnight with ^3H-AA (0.4 μCi/ml) and ^14C-OA (0.067 μCi/ml) in serum-free DMEM. Prior to the addition of oxothiazoles, the cells were washed twice with PBS containing fBSA (2 mg/ml) and PBS in order to remove unincorporated radioactivity. Cells were pretreated (1 h) with oxothiazoles prior to IL-1β stimulation (10 ng/mL, 4 h). Following IL-1β stimulation, the supernatants were cleared of detached cells by centrifugation (13000 rpm, 5 min). The release of ^3H-AA and ^14C-OA from the cells was assessed by liquid scintillation counting (LS 6500 Multi-Purpose Scintillation Counter, Beckman Coulter, Inc (USA). Adherent cells were dissolved in 1N NaOH in order to determine incorporated ^3H-AA and ^14C-OA in the cells by liquid scintillation counting. In all experiments, DMSO was included for vehicle control ([…]0.05%).
# (§5) Following treatments, cells were routinely observed by microscopy to ensure unaltered cell morphology, integrity and viability. The results are given as inhibition of released ^3H-AA and ^14C-OA in the supernatants relative to total ^3H-AA and ^14C-OA incorporated into the cells, from at least three independent experiments performed in triplicates.
# [2] = system: OA release in SW982 cells; assay: Ex vivo cellular oleic acid (OA) release assay, IL-1β stimulated; type: cell-based; conditions: Homo sapiens; SW982 synoviocytes; 4 h IL-1β stimulation; % inhibition at 10 pM oxothiazole (so in the source); read-out: OA release % Inhib
# Experimental: as §2, §3, §4, §5
# [3] = SW982 cells, tested 0-20 μM, Tables 2 and 4, read-out: AA release SW982 cells (0-20 μM) IC50
# [4] = SW982 synoviocytes, 4 h IL-1β stimulation
# [5] = SW982 synoviocytes, tested in 0-20 μM range, 4 h IL-1β stimulation, read-out: AA release IC50
Compound,inhibition at 0.091 mole fraction (human GVIA iPLA2) [%],inhibition at 0.091 mole fraction (human GV sPLA2) [%],"pIC50 [1, 3]","pIC50 [1, 5]","inhibition [1, 4] [%]",inhibition at 10 µM [2] [%],GVIA iPLA2 % Inhibition (human GVIA iPLA2; Tables 2 and 4) [%],GV sPLA2 % Inhibition (human GV sPLA2; Tables 2 and 4) [%],inhibition of the AA release (in words) ([1]; SW982 synoviocytes)
"CCCCCCCCc1ccc(OCC(=O)c2nc(C(=O)OC)cs2)cc1 [Compound A, Methyl 2-(2-(4-octylphenoxy)acetyl)thiazole-4-carboxylate]",86,41,~6.22,6.22,> 90,40,86.4,41.1,–
"O=C(COc1ccc(-c2ccccc2)cc1)c1nccs1 [Compound B, 2-(Biphenyl-4-yloxy)-1-(thiazol-2-yl)ethanone]",23,41,~5.60,5.55,73,25,–,–,interesting inhibition
"O=C(COc1ccccc1)c1nccs1 [Compound D, 2-Phenoxy-1-(thiazol-2-yl)ethanone]",13,0,< 4.70,< 4.70,12,20,–,–,–

# Second part, led by results:
inhibition at 0.091 mole fraction (human GVIA iPLA2) [%],inhibition at 0.091 mole fraction (human GV sPLA2) [%],"pIC50 [1, 3]","pIC50 [1, 5]",Compound,"inhibition [1, 4] [%]",inhibition at 10 µM [2] [%],GVIA iPLA2 % Inhibition (human GVIA iPLA2; Tables 2 and 4) [%],GV sPLA2 % Inhibition (human GV sPLA2; Tables 2 and 4) [%],inhibition of the AA release (in words) ([1]; SW982 synoviocytes)
5,4,< 4.70,–,"O=C(COc1ccc(F)cc1)c1nccs1 [Compound C, 2-(4-Fluorophenoxy)-1-(thiazol-2-yl)ethanone]",0,25,–,–,–
67,46,–,5.44,"CCCCCCCCc1ccc(OCC(=O)c2nccs2)cc1 [Compound T, 2-(4-Octylphenoxy)-1-(thiazol-2-yl)ethanone]",> 90,0,–,–,interesting inhibition
76,50,–,5.30,"CCCCCCCCc1ccc(OCC(=O)c2nc(CC(=O)OCC)cs2)cc1 [Compound Y, Ethyl 2-(2-(2-(4-octylphenoxy)acetyl)thiazol-4-yl)acetate]",71,20,–,–,–
91,55,–,–,"CCCCCCCCCCCCOCC(=O)c1nc(CC(=O)OCC)cs1 [Compound X, Ethyl 2-(2-(2-(dodecyloxy)acetyl)thiazol-4-yl)acetate]",0,0,–,–,interesting inhibition
92,48,–,< 4.70,"CCCCCCCCCCCCOCC(=O)c1nc(C(=O)OCC)cs1 [Compound W, Ethyl 2-(2-(dodecyloxy)acetyl)thiazole-4-carboxylate]",9,0,–,–,interesting inhibition
